In patent US20070172825A1, “Methods and kits for identifying functions and binding substances of gene products” (HUMAN METABOLOME TECHNOLOGIES, INC., priority 2004, published 2007):

Test system: Escherichia coli gene product (lactate dehydrogenase)
Test: Reaction of purified gene product with 19-substrate compound cocktail, changes detected by CE/MS
Type: biochemical
Settings: 1 μg purified protein added to cocktail (100 μM each substrate, NADH 500 μM), 37° C., 30 min; control without gene product; FIG. 2
Description: As the compound cocktail, 100 μl of HEPES buffer (5 mM, pH7.5) comprising 19 different substrate compounds involved in the glycolytic system, TCA cycle, or pentose phosphate cycle (fructose-1,6-phosphate (F16P), 6-phosphogluconate (6PG), 2,3-phosphoglycerate (23DPG), glucose-1-phosphate (G1P), fructose-6-phosphate (F6P), glucose-6-phosphate (G6P), ribulose-5-phosphate (Ribulose5P), ribose-5-phosphate (Ribose5P), erythrose-4-phosphate (Erythrose4P), isocitric acid (iso-Citrate), citric acid (Citrate), 2-phosphoglycerate, 3-phosphoglycerate (2PG/3PG), cis-aconitic acid (cis-Aconitate), phosphoenolpyruvic acid (PEP), succinic acid (Succinate), fumaric acid (Fumarate), lactic acid (Lactate), and pyruvic acid (Pyruvate)) (100 μM each; the final concentration is shown in all parentheses hereafter), supplemented with NADH (500 μM), MgSO4 (10 mM), and KCl (10 mM) was used. […]
One μg of the purified protein was added to the above compound cocktail and incubated at 37° C. for 30 min. Immediately thereafter, the protein was removed by ultrafiltration and the reaction mixture was analyzed using a capillary electrophoresis-mass spectrometer (CE/MS). […]
CE/MS was used according to the instructions described in documents (Japanese Patent No. 3341765 and Soga T, et al., Anal. Chem., 74, 2233-2239 (2002)). […] Each compound can be detected as its own mass number (m/z).

Structure (SMILES)	change in concentration of the compound in the cocktail compared with the control experiment
CC(=O)C(=O)O [pyruvic acid]	significant decrease
CC(O)C(=O)O (centres unmarked) [lactic acid]	increase
